Like-named read-outs stand apart in the source and are kept apart here.
Assays:
[1] = target: T1, human somatostatin receptor subtype 2 (Homo sapiens, UniProt P30874); experiment: cAMP assay for SST2R (inhibition of cAMP in CHO-K1 cells); format: cell-based; settings: Table B; inhibition of cAMP via human SST2 receptor; read-out: SST2 potency
T1 construct: expressed in transfected cells
Method in brief: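 CHO-K1 cells stably expressing human SSTR2, plated 4 days prior, treated 20 min at 37° C with 1.6 μM NKH477 plus compound dilutions in HBSS/HEPES pH 7.4/0.1% BSA/0.2 mM IBMX. Lysate cAMP measured by HTRF against standard curve; EC50 from concentration-response.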

[2] = target: T2, human somatostatin receptor subtype 5 (Homo sapiens, UniProt P35346); experiment: cAMP assay for SST5R (inhibition of cAMP in CHO-K1 cells); format: cell-based; settings: for EC50: inhibition of cAMP via human SST5 receptor, read-out: SST5 potency; for Fold selectivity for SST5 vs SST2: class symbols, SST5 receptor over SST2 receptor
T2 construct: expressed in transfected cells
Method in brief: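 CHO-K1 cells stably expressing human SSTR5 were treated 20 min at 37 °C with compounds plus 1.6 μM NKH477 in HBSS, 0.5 mM HEPES pH 7.4, 0.1% BSA, 0.2 mM IBMX. Lysate cAMP measured by HTRF against a standard curve; EC50 from cAMP-versus-concentration plots.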

T1 sequence (P30874 whole entry): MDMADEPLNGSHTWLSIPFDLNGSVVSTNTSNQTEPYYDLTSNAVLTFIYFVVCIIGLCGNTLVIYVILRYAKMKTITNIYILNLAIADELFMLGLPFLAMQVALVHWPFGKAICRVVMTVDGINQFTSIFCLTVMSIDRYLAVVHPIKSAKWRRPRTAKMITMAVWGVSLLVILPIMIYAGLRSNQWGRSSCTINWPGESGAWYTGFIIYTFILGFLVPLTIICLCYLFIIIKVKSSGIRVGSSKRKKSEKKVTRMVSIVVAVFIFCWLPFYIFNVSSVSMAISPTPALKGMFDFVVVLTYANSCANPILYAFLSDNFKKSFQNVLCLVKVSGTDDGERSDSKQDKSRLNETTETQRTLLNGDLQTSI
T2 sequence (P35346 whole entry): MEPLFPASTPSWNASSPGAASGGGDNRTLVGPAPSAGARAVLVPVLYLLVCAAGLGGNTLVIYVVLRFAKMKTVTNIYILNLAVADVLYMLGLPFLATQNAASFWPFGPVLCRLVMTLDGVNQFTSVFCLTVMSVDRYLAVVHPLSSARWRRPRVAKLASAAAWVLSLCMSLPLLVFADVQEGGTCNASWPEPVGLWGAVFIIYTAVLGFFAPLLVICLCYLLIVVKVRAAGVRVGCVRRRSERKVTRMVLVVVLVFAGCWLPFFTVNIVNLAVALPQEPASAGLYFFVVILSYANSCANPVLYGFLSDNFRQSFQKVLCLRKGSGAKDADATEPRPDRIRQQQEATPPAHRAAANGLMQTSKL

Structure (SMILES): C[C@]1(N)CCN(c2c(C(=O)NCC3CC3)cnc(C#N)c2-c2cc(F)cc(F)c2)C1 [1-86, 4-[(3S)-3-amino-3-methylpyrrolidin-1-yl]-6-cyano-N-(cyclopropylmethyl)-5-(3,5-difluorophenyl)pyridine-3-carboxamide]
- EC50 [1]: 100 to 1000 nM
- EC50 ([2]; Table A): < 10 nM
- Fold selectivity for SST5 vs SST2 ([2]; Table B): +++ (+++=>500)
- EC50 ([2]; Table B): < 10 nM

Structure (SMILES): Cc1ncc(C(=O)N[C@@H](C)C(F)(F)F)c(N2CC[C@H](N)C2)c1-c1cc(F)cc(OC(F)F)c1 [1-231, 4-[(3S)-3-aminopyrrolidin-1-yl]-5-[3-(difluoromethoxy)-5-fluorophenyl]-6-methyl-N-[(2S)-1,1,1-trifluoropropan-2-yl]pyridine-3-carboxamide]
- EC50 [1]: 100 to 1000 nM
- EC50 ([2]; Table A): < 10 nM
- Fold selectivity for SST5 vs SST2 ([2]; Table B): +++ (+++=>500)
- EC50 ([2]; Table B): < 10 nM

Structure (SMILES): N#Cc1ncc(C(=O)NC2CC(F)(F)C2)c(N2CC[C@H](N)C2)c1-c1cc(F)cc(F)c1 [1-68, 4-[(3S)-3-aminopyrrolidin-1-yl]-6-cyano-N-(3,3-difluorocyclobutyl)-5-(3,5-difluorophenyl)pyridine-3-carboxamide]
- EC50 [1]: > 1000 nM
- EC50 ([2]; Table A): < 10 nM
- Fold selectivity for SST5 vs SST2 ([2]; Table B): +++ (+++=>500)
- EC50 ([2]; Table B): < 10 nM

Structure (SMILES): COc1cc(C#N)cc(-c2cncc(C(=O)NC34CC(C3)C4)c2N2CC[C@](C)(N)C2)c1 [1-94, 4-[(3S)-3-amino-3-methylpyrrolidin-1-yl]-N-{bicyclo[1.1.1]pentan-1-yl}-5-(3-cyano-5-methoxyphenyl)pyridine-3-carboxamide]
- EC50 [1]: 100 to 1000 nM
- EC50 ([2]; Table A): < 10 nM
- Fold selectivity for SST5 vs SST2 ([2]; Table B): ++ (++=100 to 499)
- EC50 ([2]; Table B): < 10 nM

Structure (SMILES): N#Cc1ncc(C(=O)NC2CCCCC2)c(N2CC[C@H](N)C2)c1-c1cc(F)cc(F)c1 [1-81, 4-[(3S)-3-aminopyrrolidin-1-yl]-6-cyano-N-cyclohexyl-5-(3,5-difluorophenyl)pyridine-3-carboxamide]
- EC50 [1]: 100 to 1000 nM
- EC50 ([2]; Table A): < 10 nM
- Fold selectivity for SST5 vs SST2 ([2]; Table B): +++ (+++=>500)
- EC50 ([2]; Table B): < 10 nM

Structure (SMILES): Cc1ncc(C(=O)N[C@@H](C)C2CC2)c(N2CC[C@](C)(N)C2)c1-c1cccc(F)c1 [1-124, 4-[(3S)-3-amino-3-methylpyrrolidin-1-yl]-N-[(1S)-1-cyclopropylethyl]-5-(3-fluorophenyl)-6-methylpyridine-3-carboxamide]
- EC50 [1]: 100 to 1000 nM
- EC50 ([2]; Table A): < 10 nM
- Fold selectivity for SST5 vs SST2 ([2]; Table B): +++ (+++=>500)
- EC50 ([2]; Table B): < 10 nM

Structure (SMILES): Cc1ncc(C(=O)N[C@@H](C)C2CC2)c(N2CC[C@](C)(N)C2)c1-c1ccc(F)c(Cl)c1 [1-289, 4-[(3S)-3-amino-3-methylpyrrolidin-1-yl]-5-(3-chloro-4-fluorophenyl)-N-[(1S)-1-cyclopropylethyl]-6-methylpyridine-3-carboxamide]
- EC50 [1]: 100 to 1000 nM
- EC50 ([2]; Table A): < 10 nM
- Fold selectivity for SST5 vs SST2 ([2]; Table B): +++ (+++=>500)
- EC50 ([2]; Table B): < 10 nM

Structure (SMILES): COc1ncc(C(=O)N[C@@H](C)C2CC2)c(N2CC[C@H](N)C2)c1-c1cc(F)cc(Cl)c1 [1-282, 4-[(3S)-3-aminopyrrolidin-1-yl]-5-(3-chloro-5-fluorophenyl)-N-[(1S)-1-cyclopropylethyl]-6-methoxypyridine-3-carboxamide]
- EC50 [1]: 100 to 1000 nM
- EC50 ([2]; Table A): < 10 nM
- Fold selectivity for SST5 vs SST2 ([2]; Table B): +++ (+++=>500)
- EC50 ([2]; Table B): < 10 nM

Structure (SMILES): COc1ncc(C(=O)N[C@@H](C)C(F)(F)F)c(N2CC[C@](C)(N)C2)c1-c1c(C)noc1C [1-187, 4-[(3S)-3-amino-3-methylpyrrolidin-1-yl]-5-(3,5-dimethyl-1,2-oxazol-4-yl)-6-methoxy-N-[(2S)-1,1,1-trifluoropropan-2-yl]pyridine-3-carboxamide]
- EC50 [1]: > 1000 nM
- EC50 ([2]; Table A): < 10 nM
- Fold selectivity for SST5 vs SST2 ([2]; Table B): +++ (+++=>500)
- EC50 ([2]; Table B): < 10 nM

Structure (SMILES): C[C@]1(N)CCN(c2c(C(=O)NCc3ccon3)cnc(C#N)c2-c2cc(F)cc(F)c2)C1 [1-114, 4-[(3S)-3-amino-3-methylpyrrolidin-1-yl]-6-cyano-5-(3,5-difluorophenyl)-N-[(1,2-oxazol-3-yl)methyl]pyridine-3-carboxamide]
- EC50 [1]: > 1000 nM
- EC50 ([2]; Table A): < 10 nM
- Fold selectivity for SST5 vs SST2 ([2]; Table B): +++ (+++=>500)
- EC50 ([2]; Table B): < 10 nM

Structure (SMILES): C[C@]1(N)CCN(c2c(C(=O)NC3CC(F)(F)C3)cncc2-c2cc(F)cc(F)c2)C1 [1-30, 4-[(3S)-3-amino-3-methylpyrrolidin-1-yl]-N-(3,3-difluorocyclobutyl)-5-(3,5-difluorophenyl)pyridine-3-carboxamide]
- EC50 [1]: 100 to 1000 nM
- EC50 ([2]; Table A): < 10 nM
- Fold selectivity for SST5 vs SST2 ([2]; Table B): ++ (++=100 to 499)
- EC50 ([2]; Table B): < 10 nM

Structure (SMILES): CC(C)NC(=O)c1cnc(C#N)c(-c2cc(F)cc(F)c2)c1N1CC[C@](C)(N)C1 [1-91, 4-[(3S)-3-amino-3-methylpyrrolidin-1-yl]-6-cyano-5-(3,5-difluorophenyl)-N-(propan-2-yl)pyridine-3-carboxamide]
- EC50 [1]: 100 to 1000 nM
- EC50 ([2]; Table A): < 10 nM
- Fold selectivity for SST5 vs SST2 ([2]; Table B): +++ (+++=>500)
- EC50 ([2]; Table B): < 10 nM

Structure (SMILES): COc1cc(C#N)cc(-c2c(C)ncc(C(=O)NC3CC(F)(F)C3)c2N2CC[C@](C)(N)C2)c1 [1-269, 4-[(3S)-3-amino-3-methylpyrrolidin-1-yl]-5-(3-cyano-5-methoxyphenyl)-N-(3,3-difluorocyclobutyl)-6-methylpyridine-3-carboxamide]
- EC50 [1]: 100 to 1000 nM
- EC50 ([2]; Table A): < 10 nM
- Fold selectivity for SST5 vs SST2 ([2]; Table B): +++ (+++=>500)
- EC50 ([2]; Table B): < 10 nM

Structure (SMILES): COc1ncc(C(=O)N[C@@H](C)C(F)(F)F)c(N2CC[C@](C)(N)C2)c1-c1ccc(Cl)c(F)c1 [1-260, 4-[(3S)-3-amino-3-methylpyrrolidin-1-yl]-5-(4-chloro-3-fluorophenyl)-6-methoxy-N-[(2S)-1,1,1-trifluoropropan-2-yl]pyridine-3-carboxamide]
- EC50 [1]: 100 to 1000 nM
- EC50 ([2]; Table A): < 10 nM
- Fold selectivity for SST5 vs SST2 ([2]; Table B): +++ (+++=>500)
- EC50 ([2]; Table B): < 10 nM

Structure (SMILES): CCC(CC)NC(=O)c1cnc(C#N)c(-c2ccnc(C(F)(F)F)c2)c1N1CC[C@](C)(N)C1 [1-249, 4-[(3S)-3-amino-3-methylpyrrolidin-1-yl]-2-cyano-N-(pentan-3-yl)-2′-(trifluoromethyl)-[3,4′-bipyridine]-5-carboxamide]
- EC50 [1]: 100 to 1000 nM
- EC50 ([2]; Table A): < 10 nM
- Fold selectivity for SST5 vs SST2 ([2]; Table B): +++ (+++=>500)
- EC50 ([2]; Table B): < 10 nM

Structure (SMILES): C[C@H](NC(=O)c1cncc(-c2cccc3c2cnn3C)c1N1CC[C@](C)(N)C1)C1CC1 [1-162, 4-[(3S)-3-amino-3-methylpyrrolidin-1-yl]-N-[(1S)-1-cyclopropylethyl]-5-(1-methyl-1H-indazol-4-yl)pyridine-3-carboxamide]
- EC50 [1]: > 1000 nM
- EC50 ([2]; Table A): < 10 nM
- Fold selectivity for SST5 vs SST2 ([2]; Table B): +++ (+++=>500)
- EC50 ([2]; Table B): < 10 nM

Structure (SMILES): CC1(C)CC(NC(=O)c2cnc(C#N)c(-c3cc(F)cc(F)c3)c2N2CC[C@](C)(N)C2)CCO1 (stereo partly drawn) [1-113, 4-[(3S)-3-amino-3-methylpyrrolidin-1-yl]-6-cyano-5-(3,5-difluorophenyl)-N-(2,2-dimethyloxan-4-yl)pyridine-3-carboxamide]
- EC50 [1]: > 1000 nM
- EC50 ([2]; Table A): < 10 nM
- Fold selectivity for SST5 vs SST2 ([2]; Table B): +++ (+++=>500)
- EC50 ([2]; Table B): < 10 nM

Structure (SMILES): COc1cc(C#N)cc(-c2c(C)ncc(C(=O)NC3CCC(F)(F)CC3)c2N2CC[C@](C)(N)C2)c1 [1-268, 4-[(3S)-3-amino-3-methylpyrrolidin-1-yl]-5-(3-cyano-5-methoxyphenyl)-N-(4,4-difluorocyclohexyl)-6-methylpyridine-3-carboxamide]
- EC50 [1]: > 1000 nM
- EC50 ([2]; Table A): < 10 nM
- Fold selectivity for SST5 vs SST2 ([2]; Table B): +++ (+++=>500)
- EC50 ([2]; Table B): < 10 nM

Structure (SMILES): C[C@]1(N)CCN(c2c(C(=O)NCC3(F)CCC3)cncc2-c2cc(F)cc(F)c2)C1 [1-47, 4-[(3S)-3-amino-3-methylpyrrolidin-1-yl]-5-(3,5-difluorophenyl)-N-[(1-fluorocyclobutyl)methyl]pyridine-3-carboxamide]
- EC50 [1]: 100 to 1000 nM
- EC50 ([2]; Table A): < 10 nM
- Fold selectivity for SST5 vs SST2 ([2]; Table B): +++ (+++=>500)
- EC50 ([2]; Table B): < 10 nM

Structure (SMILES): COc1cc(-c2c(C)ncc(C(=O)N[C@@H](C)C3CC3)c2N2CC[C@](C)(N)C2)ccn1 [1-157, 4-[(3S)-3-amino-3-methylpyrrolidin-1-yl]-N-[(1S)-1-cyclopropylethyl]-2′-methoxy-2-methyl-[3,4′-bipyridine]-5-carboxamide]
- EC50 [1]: > 1000 nM
- EC50 ([2]; Table A): < 10 nM
- Fold selectivity for SST5 vs SST2 ([2]; Table B): +++ (+++=>500)
- EC50 ([2]; Table B): < 10 nM

Structure (SMILES): C[C@]1(N)CCN(c2c(C(=O)NC34CC(F)(C3)C4)cnc(C#N)c2-c2cc(F)cc(F)c2)C1 [1-234, 4-[(3S)-3-amino-3-methylpyrrolidin-1-yl]-6-cyano-5-(3,5-difluorophenyl)-N-{3-fluorobicyclo[1.1.1]pentan-1-yl}pyridine-3-carboxamide]
- EC50 [1]: 100 to 1000 nM
- EC50 ([2]; Table A): < 10 nM
- Fold selectivity for SST5 vs SST2 ([2]; Table B): +++ (+++=>500)
- EC50 ([2]; Table B): < 10 nM

Structure (SMILES): N#Cc1ncc(C(=O)NC23CC(C2)C3)c(N2CC[C@H](N)C2)c1-c1ccc(F)c(F)c1 [1-66, 4-[(3S)-3-aminopyrrolidin-1-yl]-N-{bicyclo[1.1.1]pentan-1-yl}-6-cyano-5-(3,4-difluorophenyl)pyridine-3-carboxamide]
- EC50 [1]: > 1000 nM
- EC50 ([2]; Table A): < 10 nM
- Fold selectivity for SST5 vs SST2 ([2]; Table B): +++ (+++=>500)
- EC50 ([2]; Table B): < 10 nM

Structure (SMILES): COc1ncc(C(=O)NC2CC(F)(F)C2)c(N2CC[C@H](N)C2)c1-c1cc(F)cc(Cl)c1 [1-285, 4-[(3S)-3-aminopyrrolidin-1-yl]-5-(3-chloro-5-fluorophenyl)-N-(3,3-difluorocyclobutyl)-6-methoxypyridine-3-carboxamide]
- EC50 [1]: 100 to 1000 nM
- EC50 ([2]; Table A): < 10 nM
- Fold selectivity for SST5 vs SST2 ([2]; Table B): +++ (+++=>500)
- EC50 ([2]; Table B): < 10 nM

— US12600709B2, “Nonpeptide somatostatin type 5 receptor agonists and uses thereof” (Crinetics Pharmaceuticals, Inc., priority 2019, dated 2026)
